Where a SMILES comes first, the peptide text is derived from it. [ ]: non-standard residue; d: D form. The star is where a group is joined. X1 = CN1/C(=C\C=C\C2=[N+](CCCCCC(=O)*)c3ccccc3C2(C)C)C(C)(C)c2ccccc21; Cha = N[C@@H](CC1CCCCC1)C(=O)O; dCha = N[C@H](CC1CCCCC1)C(=O)O
Experiments:
Format in all cases: cell-based, human
HEK293 cells = test: Cell viability assay (CellTiter-Blue), HEK293 cells; conditions: 2 × 10^4 cells per well, DMEM + 10% FBS, 1% DMSO, 24 h at 37 °C, then CellTiter-Blue 4 h, three biological replicates fitted in Origin, standard error in brackets
Experimental: (§1) KB and MCF7 cells were kindly gifted by Prof. Arwyn T. Jones (Cardiff University), HEK293 cells were purchased from Public Health England, and SK-OV-3 cells were purchased from National Collection of Authenticated Cell Cultures (https://cell-bank.org.cn/). Cells were routinely tested for mycoplasma infection. KB and SK-OV-3 cells were maintained in T75 flasks at 37 °C in a 5% CO2 atmosphere in folic acid-depleted Roswell Park Memorial Institute (RPMI)-1640 medium supplemented with 10% (v/v) fetal bovine serum (FBS). MCF7 and HEK293 cells were maintained in T75 flasks at 37 °C in a 5% CO2 atmosphere in Dulbecco’s Modified Eagle’s medium (DMEM) supplemented with 10% (v/v) FBS. Cells were maintained at a sub-confluent monolayer and split at 80–85% confluency. For splitting, cells were washed with PBS, trypsinized in 1 mL of trypsin, and 200 µL of the 1000 µL trypsin cell suspension was re-suspended in 12 mL fresh DMEM containing 10% (v/v) FBS in a new T75 flask. KB and SK-OV-3 cells were used for biological experiments after being maintained for at least 10 days in folic acid-depleted RPMI-1640 medium.
(§2) SK-OV-3, MCF7, and HEK293 cells were seeded at a density of 2 × 10^4 cells per well in a Nunc™ MicroWell™ 96-well plate and grown at 37 °C in a 5% CO2 atmosphere in DMEM supplemented with 10% (v/v) FBS for 24 h. KB cells were seeded at a density of 7 × 10^3 cells per well in a 96-well plate and grown at 37 °C in a 5% CO2 atmosphere in folic acid-depleted RPMI-1640 medium supplemented with 10% (v/v) FBS for 24 h. Stock solutions of compounds 2–6 and 11–13 were obtained by dissolving the compounds in sterile deionized water. Compounds 1, and 7–10 were dissolved in pure DMSO. The stock solutions were diluted into the proper medium (according to the cell line tested) supplemented with 10% FBS to the appropriate concentration, and cells in each well were incubated with 100 µL of the solution. The solutions in each well were then adjusted to a concentration of 1% (v/v) DMSO. After 24 h at 37 °C, 20 µL of CellTiter-Blue™ was added to each well. The plate was incubated for another 4 h at 37 °C before analysis on a Perkin Elmer Victor X plate reader (excitation 531 nm; emission 595 nm). Each data point was calculated from a minimum of nine values resulting from three biological replicates (i.e., cells split from three different passages); each biological replicate is calculated from three technical replicates (i.e., cells split from the same passage). Value from media-only with CellTiter-Blue™ was set at 0% viability. This value was then subtracted from the values from cell-only (i.e., non-treated) wells with CellTiter-Blue™ in each biological replicate and set as 100% viability. For treatments of Cy3-containing compounds, blanks were generated with cell-free wells containing the compounds incubated for 24 h before addition of CellTiter-Blue™. The fluorescent reading for these wells was deducted from the treatment readings. Dose-response fitting curves were generated using Origin, version 2019b, OriginLab Corporation, Northampton, MA, USA (Figures S21–S24, Supplementary Materials).
(§3) Comparison of cytotoxicity fitting curves was achieved by applying the extra sum-of-squares F test, performed using GraphPad Prism version 9 for Windows, GraphPad Software, La Jolla, California, USA (https://www.graphpad.com/). […] Statistical analysis on the flow cytometry data was achieved by applying the unpaired two-tailed t-test test, performed using GraphPad Prism version 9 for Windows, GraphPad Software, La Jolla California USA, USA (https://www.graphpad.com/).
(§4) Cytotoxicity of 1–13 was evaluated using the CellTiter-Blue assay on KB, MCF7, SK-OV-3, and HEK293 cells. KB cells are derived from human cervical cancer, while SK-OV-3 cells are derived from human ovarian cancer. […] This feature is of particular relevance in anticancer applications, as it can be exploited for selective targeting and delivery. […]

KB cells = test: Cell viability assay (CellTiter-Blue), KB cells; conditions: 7 × 10^3 cells per well, folic acid-depleted RPMI-1640 + 10% FBS, 1% DMSO, 24 h at 37 °C, then CellTiter-Blue 4 h, three biological replicates fitted in Origin, standard error in brackets
Experimental: as §1, §2, §3, §4

[1] = tested on: mitochondria of SK-OV-3 cells; test: Confocal microscopy, colocalisation with MitoTracker Green FM, SK-OV-3 cells; conditions: 10 µM conjugate, 10 min at 37 °C; for Pearson's correlation coefficient of MitoTracker Green and Cy3 fluorescence: imaged at 20X; for Pearson's correlation coefficient of MitoTracker Green FM and Cy3 fluorescence: imaged at 63X
Experimental: (§5) SK-OV-3 and MCF7 were seeded at a density of 1 × 10^6 cells per well in glass-bottom culture dishes and grown at 37 °C in a 5% CO2 atmosphere in medium supplemented with 10% (v/v) FBS for 24 h. Cells were washed once with the RPMI-1640 medium supplemented with 10% (v/v) FBS before staining. Compounds 1, 5–10 were diluted into the RPMI-1640 medium supplemented with 10% (v/v) FBS to 10 μM and then added to the culture dishes, respectively. After 10-min incubation at 37 °C, cells were washed with RPMI-1640 medium supplemented with 10% (v/v) FBS. Cells were then treated with 50 nM MitoTracker Green FM and 10 μg/mL Hoechst33258 pre-formulated with RPMI-1640 medium supplemented with 10% (v/v) FBS and then incubated for another 10 min at 37 °C before analysis on ZEISS LSM 900 with Airyscan 2. The results were analyzed using Image J software (Figure 3 and Figures S4–S7 in Supplementary Materials).
(§6) Figure 3 Confocal microscopy images of SK-OV-3 and MCF7 cells treated with Cy3-containing conjugates. Cells were treated with 10 µM of the indicated conjugate for 10 min at 37 °C, washed, stained with 50 nM MitoTracker Green FM and 10 μg/mL Hoechst33258 for 10 min at 37 °C, washed, and imaged at 63X. Pearson’s correlation coefficients of MitoTracker Green FM and Cy3 fluorescence for compounds 1, 5, 6, 7, 8, 9, and 10 in SK-OV-3 and MCF cells are 0.75/0.64, 0.73/0.81, 0.91/0.61, 0.78/0.63, 0.85/0.69, 0.43/0.82, and 0.78/0.60, respectively. Excitation wavelengths for Hoechst33258, MitoTracker Green FM and Cy3 were set as 405, 488, and 561 nm, respectively. Scale bars denote 25 μm. Additional images, including the results of Hoechst33258 staining, are shown in Figure S4 (SK-OV-3 at 20X), Figure S5 (SK-OV-3 at 63X), Figure S6 (MCF7 at 20X) and Figure S7 (MCF7 at 63X), Supplementary Materials.

[2] = tested on: mitochondria of MCF7 cells; test: Confocal microscopy, colocalisation with MitoTracker Green FM, MCF7 cells; conditions: 10 µM conjugate, 10 min at 37 °C; for Pearson's correlation coefficient of MitoTracker Green and Cy3 fluorescence: imaged at 20X; for Pearson's correlation coefficient of MitoTracker Green FM and Cy3 fluorescence: imaged at 63X
Experimental: as §5, §6

MCF7 cells = test: Cell viability assay (CellTiter-Blue), MCF7 cells; conditions: MCF7 cells, 2 × 10^4 cells per well, DMEM + 10% FBS, 1% DMSO, 24 h at 37 °C, then CellTiter-Blue 4 h; three biological replicates fitted in Origin, standard error in brackets
Experimental: as §1, §2, §3, §4

SK-OV-3 cells = test: Cell viability assay (CellTiter-Blue), SK-OV-3 cells; conditions: 2 × 10^4 cells per well, medium + 10% FBS, 1% DMSO, 24 h at 37 °C, then CellTiter-Blue 4 h, three biological replicates fitted in Origin, standard error in brackets
Experimental: as §1, §2, §3, §4

SMILES | EC50 (HEK293 cells) | EC50 (KB cells) | Pearson's correlation coefficient of MitoTracker Green and Cy3 fluorescence [1] | Pearson's correlation coefficient of MitoTracker Green FM and Cy3 fluorescence [1] | Pearson's correlation coefficient of MitoTracker Green and Cy3 fluorescence [2] | Pearson's correlation coefficient of MitoTracker Green FM and Cy3 fluorescence [2] | EC50 (MCF7 cells) | EC50 (SK-OV-3 cells)
CC(C)C[C@H](NC(=O)[C@H](CCCCN)NC(=O)CCCCC[N+]1=C(/C=C/C=C2\N(C)c3ccccc3C2(C)C)C(C)(C)c2ccccc21)C(=O)N[C@@H](C)C(=O)N[C@@H](CCCCN)C(=O)N[C@@H](CC(C)C)C(=O)N[C@@H](C)C(=O)N[C@@H](CCCCN)C(=O)N[C@@H](CCCCN)C(=O)N[C@@H](CC(C)C)C(=O)N[C@@H](C)C(=O)N[C@@H](CCCCN)C(=O)N[C@@H](CC(C)C)C(=O)N[C@@H](C)C(=O)N[C@@H](CCCCN)C(N)=O [Compound 5] | 44.3 µM | 6.7 µM | 0.76 | 0.73 | 0.80 | 0.81 | 7.37 µM | 11 µM
CC(C)C[C@@H](NC(=O)[C@@H](CCCCN)NC(=O)CCCCC[N+]1=C(/C=C/C=C2\N(C)c3ccccc3C2(C)C)C(C)(C)c2ccccc21)C(=O)N[C@H](C)C(=O)N[C@H](CCCCN)C(=O)N[C@H](CC(C)C)C(=O)N[C@H](C)C(=O)N[C@H](CCCCN)C(=O)N[C@H](CCCCN)C(=O)N[C@H](CC(C)C)C(=O)N[C@H](C)C(=O)N[C@H](CCCCN)C(=O)N[C@H](CC(C)C)C(=O)N[C@H](C)C(=O)N[C@H](CCCCN)C(N)=O [Compound 6] | 5.3 µM | 3.5 µM | 0.74 | 0.91 | 0.81 | 0.61 | 5.7 µM | 6.39 µM
C[C@@H](NC(=O)[C@H](CC1CCCCC1)NC(=O)[C@@H](CCCCN)NC(=O)[C@@H](C)NC(=O)[C@@H](CC1CCCCC1)NC(=O)[C@@H](CCCCN)NC(=O)CCCCC[N+]1=C(/C=C/C=C2\N(C)c3ccccc3C2(C)C)C(C)(C)c2ccccc21)C(=O)N[C@H](CCCCN)C(=O)N[C@H](CCCCN)C(=O)N[C@@H](CC1CCCCC1)C(=O)N[C@H](C)C(=O)N[C@H](CCCCN)C(=O)N[C@H](CC1CCCCC1)C(=O)N[C@H](C)C(=O)N[C@H](CCCCN)C(N)=O [Compound 7] (X1-[dK][dCha][dA][dK][Cha][dA][dK][dK][Cha][dA][dK][dCha][dA][dK]-NH2) | 8.2 µM | 5.5 µM | 0.74 | 0.78 | 0.52 | 0.63 | 11.6 µM | 23 µM
CC(C)C[C@H](NC(=O)[C@H](CCCCN)NC(=O)[C@H](C)NC(=O)[C@H](CC(C)C)NC(=O)[C@H](CCCCN)NC(=O)[C@H](CCCCN)NC(=O)[C@H](C)NC(=O)[C@H](CC(C)C)NC(=O)[C@H](CCCCN)NC(=O)[C@H](C)NC(=O)[C@H](CC(C)C)NC(=O)[C@H](CCCCN)NC(=O)[C@H](CCCCNC(=O)[C@H](CCC(=O)O)NC(=O)c1ccc(NCc2cnc3nc(N)nc(O)c3n2)cc1)NC(=O)CCCCC[N+]1=C(/C=C/C=C2\N(C)c3ccccc3C2(C)C)C(C)(C)c2ccccc21)C(=O)N[C@@H](C)C(=O)N[C@@H](CCCCN)C(N)=O [Compound 8] | 35.6 µM | 38.8 µM | 0.53 | 0.85 | 0.60 | 0.69 | 49.4 µM | 8.8 µM
CC(C)C[C@@H](NC(=O)[C@@H](CCCCN)NC(=O)[C@H](CCCCNC(=O)[C@H](CCC(=O)O)NC(=O)c1ccc(NCc2cnc3nc(N)nc(O)c3n2)cc1)NC(=O)CCCCC[N+]1=C(/C=C/C=C2\N(C)c3ccccc3C2(C)C)C(C)(C)c2ccccc21)C(=O)N[C@H](C)C(=O)N[C@H](CCCCN)C(=O)N[C@H](CC(C)C)C(=O)N[C@H](C)C(=O)N[C@H](CCCCN)C(=O)N[C@H](CCCCN)C(=O)N[C@H](CC(C)C)C(=O)N[C@H](C)C(=O)N[C@H](CCCCN)C(=O)N[C@H](CC(C)C)C(=O)N[C@H](C)C(=O)N[C@H](CCCCN)C(N)=O [Compound 9] | 6.9 µM | 22.4 µM | 0.52 | 0.43 | 0.61 | 0.82 | 13.2 µM | 8 µM

From publication PMC9138991, “Effect of Trimethine Cyanine Dye- and Folate-Conjugation on the In Vitro Biological Activity of Proapoptotic Peptides” (Biomolecules, 2022)
